pIC50: −log10 of the molar value. Where two headings read alike, the source gives them in different places.
Experiments:
[1] = target: T1, human recombinant Monoacylglycerol Lipase (Homo sapiens, UniProt Q99685); assay: MAGL enzymatic assay (IC50; 7-HCA substrate added at T=0 min or T=30 min); type: biochemical; conditions: geometric mean of 2-5 determinations unless otherwise indicated
T1 sequence (Q99685 1-303): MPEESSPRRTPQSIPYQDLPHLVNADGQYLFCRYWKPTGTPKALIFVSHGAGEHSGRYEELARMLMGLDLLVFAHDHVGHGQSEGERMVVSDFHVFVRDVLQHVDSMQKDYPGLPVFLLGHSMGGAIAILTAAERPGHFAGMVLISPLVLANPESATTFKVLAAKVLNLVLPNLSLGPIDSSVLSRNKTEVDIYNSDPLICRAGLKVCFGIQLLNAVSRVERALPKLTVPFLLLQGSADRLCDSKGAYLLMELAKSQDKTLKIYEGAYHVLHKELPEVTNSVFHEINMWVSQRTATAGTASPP

[2] = target: T1, human recombinant Monoacylglycerol Lipase; assay: MAGL inactivation (kinact/KI from enzyme progress curves, T=0 min protocol); conditions: from plot of Kobs vs. compound concentration, geometric mean of 2-5 determinations (b: ≥6)
[3] = MAGL (T = 30 min) IC50, substrate 7-HCA added after 30 minute incubation (T=30 min)
[4] = substrate 7-HCA added immediately (T=0 min), read-out: MAGL (T = 0 min) IC50

| SMILES | pIC50 [1, 3] | pIC50 [1, 4] | MAGL kinact/KI [2] |
| --- | --- | --- | --- |
| CN(C(=O)CC1CC1)C1CC2(CCN(C(=O)O[C@H](CO)C(F)(F)F)CC2)C1 [Example 43, (2R)-1,1,1-trifluoro-3-hydroxypropan-2-yl 2-[(cyclopropylacetyl)(methyl)amino]-7-azaspiro[3.5]nonane-7-carboxylate] | 8.70 | 7.54 | 18500 1/s per M |
| CN(C(=O)Cc1ccccc1)C1CC2(CCN(C(=O)O[C@H](CO)C(F)(F)F)CC2)C1 [Example 44, (2R)-1,1,1-trifluoro-3-hydroxypropan-2-yl 2-[methyl(phenylacetyl)amino]-7-azaspiro[3.5]nonane-7-carboxylate] | 8.40 | 7.40 | 13800 1/s per M |
| CN(C1CC2(CCN(C(=O)O[C@H](CO)C(F)(F)F)CC2)C1)S(=O)(=O)c1ccccc1 [Example 45, (2R)-1,1,1-trifluoro-3-hydroxypropan-2-yl 2-[methyl(phenylsulfonyl)amino]-7-azaspiro[3.5]nonane-7-carboxylate] | 9.00 | 8.05 | 63200 1/s per M |
| N#Cc1cccc(C2CC3(CCN(C(=O)O[C@H](CO)C(F)(F)F)CC3)C2)c1 [Example 46, (2R)-1,1,1-trifluoro-3-hydroxypropan-2-yl 2-(3-cyanophenyl)-7-azaspiro[3.5]nonane-7-carboxylate] | 9.00 | 8.40 | 167000 1/s per M |
| COc1cc(C2CC3(CCN(C(=O)O[C@H](CO)C(F)(F)F)CC3)C2)ccn1 [Example 47, (2R)-1,1,1-trifluoro-3-hydroxypropan-2-yl 2-(2-methoxypyridin-4-yl)-7-azaspiro[3.5]nonane-7-carboxylate] | 8.70 | 7.77 | 17100 1/s per M |
| O=C(O[C@H](CO)C(F)(F)F)N1CCC2(CC1)CC(c1ccc(C(F)F)cn1)C2 [Example 48, (2R)-1,1,1-trifluoro-3-hydroxypropan-2-yl 2-[5-(difluoromethyl)pyridin-2-yl]-7-azaspiro[3.5]nonane-7-carboxylate] | 8.70 | 7.74 | 26000 1/s per M |
| O=C(O[C@H](CO)C(F)(F)F)N1CCC2(CC1)CC(n1cc(C3CC3)cn1)C2 [Example 49, (2R)-1,1,1-trifluoro-3-hydroxypropan-2-yl 2-(4-cyclopropyl-1H-pyrazol-1-yl)-7-azaspiro[3.5]nonane-7-carboxylate] | 9.00 | 7.89 | 77400 1/s per M |
| O=C(O[C@H](CO)C(F)(F)F)N1CCC2(CC1)CC(Oc1cccc(F)c1)C2 [Example 51, (2R)-1,1,1-trifluoro-3-hydroxypropan-2-yl 2-(3-fluorophenoxy)-7-azaspiro[3.5]nonane-7-carboxylate] | 9.52 | 8.40 | 128000 1/s per M |
| CN(C(=O)C1CC1)C1CC2(CCN(C(=O)O[C@H](CO)C(F)(F)F)CC2)C1 [Example 55, (2R)-1,1,1-trifluoro-3-hydroxypropan-2-yl 2-[(cyclopropylcarbonyl)(methyl)amino]-7-azaspiro[3.5]nonane-7-carboxylate] | 8.70 | 7.52 | 15700 1/s per M |
| O=C(O[C@H](CO)C(F)(F)F)N1CCC2(CC1)CC(n1cccn1)C2 [Example 56, (2R)-1,1,1-trifluoro-3-hydroxypropan-2-yl 2-(1H-pyrazol-1-yl)-7-azaspiro[3.5]nonane-7-carboxylate] | 7.52 | 6.51 | 1420 1/s per M |
| CN([C@H]1COC2(CCN(C(=O)O[C@H](CO)C(F)(F)F)CC2)C1)S(=O)(=O)CC1CC(F)(F)C1 [Example 57, (2R)-1,1,1-trifluoro-3-hydroxypropan-2-yl (3R)-3-[{[(3,3-difluorocyclobutyl)methyl]sulfonyl}(methyl)amino]-1-oxa-8-azaspiro[4.5]decane-8-carboxylate] | 7.89 | 6.95 | 2770 1/s per M |
| CN(C(=O)C1CC(F)(F)C1)[C@H]1COC2(CCN(C(=O)O[C@H](CO)C(F)(F)F)CC2)C1 [Example 58, (2R)-1,1,1-trifluoro-3-hydroxypropan-2-yl (3R)-3-{[(3,3-difluorocyclobutyl)carbonyl](methyl)amino}-1-oxa-8-azaspiro[4.5]decane-8-carboxylate] | 7.68 | 6.77 | 1810 1/s per M |
| O=C(O[C@H](CO)C(F)(F)F)N1CCC2(CC1)CC(Oc1ccnc(C(F)(F)F)c1)C2 [Example 59, (2R)-1,1,1-trifluoro-3-hydroxypropan-2-yl 2-{[2-(trifluoromethyl)pyridin-4-yl]oxy}-7-azaspiro[3.5]nonane-7-carboxylate] | 9.00 | 8.30 | 137000 1/s per M |
| O=C(O[C@H](CO)C(F)(F)F)N1CCC2(CC1)CC(Oc1cccc(C(F)F)c1)C2 [Example 60, (2R)-1,1,1-trifluoro-3-hydroxypropan-2-yl 2-[3-(difluoromethyl)phenoxy]-7-azaspiro[3.5]nonane-7-carboxylate] | 9.52 | 8.70 | 267000 1/s per M |
| CN(C1CC2(CCN(C(=O)O[C@H](CO)C(F)(F)F)CC2)C1)S(=O)(=O)C(C)(C)C [Example 61, (2R)-1,1,1-trifluoro-3-hydroxypropan-2-yl 2-[(tert-butylsulfonyl)(methyl)amino]-7-azaspiro[3.5]nonane-7-carboxylate] | 9.00 | 8.05 | 66900 1/s per M |
| O=C(O[C@H](CO)C(F)(F)F)N1CCC2(CC1)CC(Oc1ccccc1)C2 [Example 63, (2R)-1,1,1-trifluoro-3-hydroxypropan-2-yl 2-phenoxy-7-azaspiro[3.5]nonane-7-carboxylate] | 9.00 | 7.96 | 34100 1/s per M |
| O=C(O[C@H](CO)C(F)(F)F)N1CCC2(CC1)CC(n1cc(F)cn1)C2 [Example 64, (2R)-1,1,1-trifluoro-3-hydroxypropan-2-yl 2-(4-fluoro-1H-pyrazol-1-yl)-7-azaspiro[3.5]nonane-7-carboxylate] | 8.05 | 7.02 | 6260 1/s per M |
| Cc1nn(C2CC3(CCN(C(=O)O[C@H](CO)C(F)(F)F)CC3)C2)c(C)c1C [Example 65, (2R)-1,1,1-trifluoro-3-hydroxypropan-2-yl 2-(3,4,5-trimethyl-1H-pyrazol-1-yl)-7-azaspiro[3.5]nonane-7-carboxylate] | 8.40 | 7.36 | 10600 1/s per M |
| O=C(O[C@H](CO)C(F)(F)F)N1CCC2(CC1)CC(n1cc(C(F)F)cn1)C2 [Example 66, (2R)-1,1,1-trifluoro-3-hydroxypropan-2-yl 2-[4-(difluoromethyl)-1H-pyrazol-1-yl]-7-azaspiro[3.5]nonane-7-carboxylate] | 8.40 | 7.40 | 15700 1/s per M |
| O=C(O[C@H](CO)C(F)(F)F)N1CCC2(CC1)CC(c1ccc(C(F)(F)F)nc1)C2 [Example 67, (2R)-1,1,1-trifluoro-3-hydroxypropan-2-yl 2-[6-(trifluoromethyl)pyridin-3-yl]-7-azaspiro[3.5]nonane-7-carboxylate] | 8.70 | 7.85 | 60600 1/s per M |
| O=C(O[C@H](CO)C(F)(F)F)N1CCC2(CC1)CC(c1ccnc(C(F)(F)F)c1)C2 [Example 68, (2R)-1,1,1-trifluoro-3-hydroxypropan-2-yl 2-[2-(trifluoromethyl)pyridin-4-yl]-7-azaspiro[3.5]nonane-7-carboxylate] | 9.05 | 8.05 | 88300 1/s per M |
| O=C(O[C@H](CO)C(F)(F)F)N1CCC2(CC1)CC(c1cccc(C(F)(F)F)n1)C2 [Example 76, (2R)-1,1,1-trifluoro-3-hydroxypropan-2-yl 2-[6-(trifluoromethyl)pyridin-2-yl]-7-azaspiro[3.5]nonane-7-carboxylate] | 9.70 | 8.70 | 206000 1/s per M |
| O=C(O[C@H](CO)C(F)(F)F)N1CCC2(CC1)CC(c1cccc(C(F)F)n1)C2 [Example 77, (2R)-1,1,1-trifluoro-3-hydroxypropan-2-yl 2-[6-(difluoromethyl)pyridin-2-yl]-7-azaspiro[3.5]nonane-7-carboxylate] | 9.22 | 8.40 | 82100 1/s per M |
| O=C(O[C@H](CO)C(F)(F)F)N1CCC2(CC1)CC(c1cc(C(F)F)ccn1)C2 [Example 78, (2R)-1,1,1-trifluoro-3-hydroxypropan-2-yl 2-[4-(difluoromethyl)pyridin-2-yl]-7-azaspiro[3.5]nonane-7-carboxylate] | 9.00 | 8.05 | 75400 1/s per M |
| O=C(O[C@H](CO)C(F)(F)F)N1CCC2(CC1)CC(c1ccc(C(F)(F)F)cn1)C2 [Example 79, (2R)-1,1,1-trifluoro-3-hydroxypropan-2-yl 2-[5-(trifluoromethyl)pyridin-2-yl]-7-azaspiro[3.5]nonane-7-carboxylate] | 9.00 | 8.10 | 63500 1/s per M |
